Data published in PMC3454376, “Salidroside Improves Behavioral and Histological Outcomes and Reduces Apoptosis via PI3K/Akt Signaling after Experimental Traumatic Brain Injury” (PLoS ONE, 2012).

Test system: mice subjected to controlled cortical impact injury
Experiment: Contusion volume, cresyl violet staining
Format: in vivo
Conditions: day 28; for contusion volume: vehicle 13.5±4.0
Protocol: All animal procedures were approved by the Animal Research Committee at Cheng Hsin General Hospital (Animal permit number […] 101-08), and all procedures complied with the Guide for the Care and Use of Laboratory Animals published by the US National Institutes of Health (NIH Publication No. 85-23, revised 1996). Animals were housed under a 12-h light/dark cycle and at constant temperature (21-25°C) and humidity (45-50%). They were allowed free access to pellet chow and water. TBI in mice was induced by a CCI injury model as previously described. Briefly, 8-week-old male C57BL/6 mice (weighing 22-25 g) were anesthetized through the use of intraperitoneal injection of sodium pentobarbital (65 mg/kg; Rhone Merieux, Harlow, UK) and placed in a stereotaxic frame. A 5 mm craniotomy was performed over the right parietal cortex, centered on the coronal suture and 0.1 mm lateral to the sagittal suture, and injury to dura was avoided. Injury was induced using a pneumatic piston with a rounded metal tip (2.5 mm diameter) that was angled 22.5° to the vertical so that the tip was perpendicular with the brain surface at the center of the craniotomy. The impact, with a velocity of […] and a deformation depth of 2 mm below the dura, was applied. The bone flap was immediately replaced and sealed, and the scalp was sutured. Body temperature was monitored throughout the surgery by a rectal probe; temperature was maintained at 37.0±0.5°C using a heated pad. Mice were placed in a heated cage to maintain body temperature, while recovering from anesthesia. Sham-operated mice underwent the same procedure as injured mice, but without CCI. Three sets of experiments were performed. The first set was to investigate the protective effects of salidroside. All animals were randomized into 1 of 3 groups (sham injury, CCI + vehicle, CCI + SALD 20). […] To determine the optimal dose of salidroside, a pilot study was performed using 2 different doses (20 and 50 mg/kg) administered 10 min after injury, and neurological deficits and tissue damage were evaluated as the main outcomes. […]

OC[C@H]1O[C@@H](OCCc2ccc(O)cc2)[C@H](O)[C@@H](O)[C@@H]1O [SALD, salidroside]
contusion volume as % of the vehicle group (20 mg/kg ip 10 min after CCI): 73.8%
contusion volume (20 mg/kg ip 10 min after CCI, P<0.05): 9.9±1.1 mm^3
contusion volume (50 mg/kg ip 10 min after CCI, P>0.05): 11.7±3.2 mm^3
